Experimental data as given in US20220257741A1, “COMBINATION THERAPY FOR CANCER” (IO Biotech ApS, priority 2016, published 2022).
“And” between values parts separate entries of the source, which are not always exact repeats. Equal values may be shown once. “Also recorded” adds a separate entry of the source.

What was measured:
THP-1 cells = assay: 51Cr-release assay, PBMC killing of THP-1 (Example 4); assay type: cell-based; settings: peptide 0.1 μM, day 17, range of E/T ratios
Method: Buffycoats were thawed (day 0), washed twice, resuspended in medium, counted and plated into wells as set out in Table Z4. THP-1 cells were irradiated with 30 GY and washed twice in medium. THP-1 cells were counted and added to PBMC containing wells as set out in Table Z4 (total volume 2 ml). Plates were placed in an incubator at 37 degrees. On days 7 and 14, 1 ml supernatant/well was removed. Cells were harvested and analyzed for cytotoxic activity on day 17. A standard ^51Cr-release assay was used to measure the cytotoxic potential of the peptide treated PBMCs. ^51Cr labeled THP-1 cells were used as target cells and peptide treated PBMCs as effector cells. Triton-X treated wells was used as maximum measurable lysis and medium alone as minimum lysis.
% Specific lysis=((cpmsample−cpmminimum)/(cpmmaximum−cpmminimum))×100%

TC-1 tumour = TC-1 tumour model, peptide vaccination (Examples 7 and 8); assay type: in vivo, C57BL/6 mice
Method: C57BL/6 mice harbouring TC-1 tumour were treated with TC-1 specific E7-peptide ([…]; SEQ ID NO: 35) or IDO-Pep1 ([…]; SEQ ID NO: 33) and the efficacy of the peptide vaccines was assessed by tumour burden and survival. The mouse IDO peptide sequence (IDO-Pep1) was selected to provide a murine analog for the human IDO peptides tested in the earlier Examples, because the sequence of murine IDO1 differs to that of human IDO1.
4-6 week-old C57BL/6 mice were injected with 70,000 cell/ mouse of TC-1 cells. Treatment in respective groups was started when tumour reached an average size of approximately 0.075 cm3 (approx. 10 days after tumour inoculation). Peptides used for vaccination included TC1-specific E7-peptide ([…]; SEQ ID NO: 35) and IDO-Pep1 ([…]; SEQ ID NO: 33). The mouse IDO peptide was designed based on MHC class I and II binding algorithm. […] Mice were vaccinated two-three times with one-week interval, and the efficacy of the peptide vaccines was assessed by measuring tumour volume and/or overall survival.
C57BL/6 mice harbouring TC-1 tumour were treated with TC-1 specific E7-peptide ([…]; SEQ ID NO: 35), or IDO-Pep1 ([…]; SEQ ID NO: 33), or a combination of both E7 and IDO-Pep1. The efficacy of the vaccines was assessed by overall survival. […]

[1] = test system: Tregs and MDSC in peripheral blood; assay: Flow cytometry of regulatory cells in peripheral blood of patients; assay type: in vivo, human; settings: patients treated with Ipilimumab without the vaccine (data not shown)
Method: PBMC samples was thawed in 37° C. RPMI 1640 medium (Lonza) supplemented with 2.5 ml DNAse containing Pulmozyme (Roche) and 0.26 mmol MgCl (Herlev Hospital Pharmacy) per 100 ml buffer. All stainings were done in phosphate buffered saline (PBS)(Lonza) containing 0.5% bovine serum albumin (Sigma-Aldrich). The following antibodies were used: FoxP3-PE, HLA-DR-HV500, CD3-PE-Cy7, CD19-PE-Cy7, CD56-PE-Cy7, CD4-HV500, CD11b-APC, CD3-APC (purchased from BD Bioscience), CD33-FITC, CD124-PE (purchased from BD Pharmigen), HELIOS-PerCP-Cy5.5, CD14-BV421, CD25-BV421 (all purchased from Biolegend), CD127-FITC, CD39-PE-Cy7 (purchased from eBioscience). Additionally, all samples were stained with the LIVE/DEADR Fixable Near-IR Dead Cell Stain Kit (life technologies). For intracellular staining of transcription factors, we used the Foxp3/Transcription Factor Staining Buffer Set (eBioscience) according to the manufacturors instructions. Cells were acquired on a FACSCanto II using FACSDiva Software version 6.1.3 (BD Biosciences). Analysis of flow data was done using FlowJo software version 10 OSX (TreeStar, Inc., Ashland, Oreg.). Data-analysis was done after filtering of dead cells and doublets/triplets.
Tregs were defined as CD3+CD4+CD25highCD127-FOXP3+.
MDSC were defined as PBMC negative for lineage-markers CD3, CD19 and CD56 and additionally HLADR-/lowCD14+CD11b+CD33+CD124−.

[2] = Phase I clinical trial, adverse events graded by CTCAE v. 4.0; assay type: in vivo, human
Description: Patients were enrolled in a First-in-Human phase I clinical trial at the Department of Oncology at Herlev Hospital, University of Copenhagen (Herlev, Denmark) from March 2014 to August 2014. The study was originally designed as a two-armed phase I study, combining IDO1-derived peptide vaccination with standard-of-care treatment with either Ipilimumab or Vemurafenib. Only data from patients treated with Ipilimumab in combination with vaccine is reported. […]
Primary end-point was toxicity. In addition, immune-response against the vaccine peptide and the clinical benefit of treatment were assessed. […]
Safety of the study treatment was assessed in terms of occurrence of adverse events, graded according to Common Terminology Criteria for Adverse Events (CTCAE) version 4.0. Anti-tumour activity was evaluated with positron emission tomography-computed tomography (PET-CT) scans obtained at baseline (up to 28 days before treatment initiation) after 12 weeks and every 8-12 weeks thereafter until progression. CT scans were evaluated according to Response Evaluation Criteria In Solid Tumors (RECIST) version 1.1. […]

metastatic melanoma = settings: phase III; cited from earlier work
PBMC = assay: Direct IFN-γ ELISpot of patient PBMC stimulated with IO102 peptide; assay type: cell-based, human; settings: patients treated with Ipilimumab without IDO-vaccine, before and after three series

## CILDSKLEVEALAQLLTFALK [IDO scrambled]
THP-1 cells
  Allogenic killing (lysis) of THP-1 cells by PBMCs: induced less lysis of THP-1 cells

## MTYENMDIL (listed as Mus musculus) [IDO-Pep1]
TC-1 tumour; 100 μg/mouse s.c. with PADRE and QuilA, therapeutic
  Anti-tumour effect (tumour volume and survival): anti-tumour protective effect; also recorded: greater protection than when vaccinated with tumour-specific peptide antigen, E7 peptide

## Ipilimumab
[1]
  Level of MDSC in peripheral blood: no change in MDSC
  Level of Tregs in peripheral blood: Reduced levels of Tregs
[2]; adverse reactions by CTCAE v. 4.0, one table line per patient (01i-13i), attributed by treating physician, Ipilimumab 3 mg/kg plus IO102 vaccine
  Toxicity, Ipilimumab: Grade II choroiditis and None (3×) and Pruritus grade I, Grade I and diarrhoea, and Grade II rash, grade II and diarrhoea (2×) and Grade II rash and Grade II rosacea, grade III and Grade II pruritus and Grade I nausea
[2]; individual patients, CTCAE grade
  Adverse reactions most likely related to Ipilimumab treatment: Two patients experienced grade II diarrhoea; also recorded: grade III diarrhoea; also recorded: two patients experienced grade II maculopapular rash; also recorded: flare in their pre-existing rosacea; also recorded: grade II choroiditis
Metastatic melanoma
  Clinical benefit rate: ~30%
  Overall response rate: 10.9%
PBMC
  Induction of IDO-specific cells (IO102 reactivity, ELISpot): no induction of IDO-specific cells

## RAHYNIVTF (Fragment of the E7 oncoprotein of HPV) [E7 peptide]
TC-1 tumour; 100 μg/mouse of each peptide s.c. with PADRE and QuilA
  Protection (overall survival): has therapeutic efficacy
